Results: patent publication US10295552B2, “Method for diagnosis of primary hyperaldosteronism” (ATTOQUANT D[…], priority 2013, dated 2019)

These compounds were tested on aldosterone-to-renin ratio (ARR) (assay: Aldosterone-to-renin ratio (ARR) before and 4 h after a single dose of a RAS blocker). Settings: 5 healthy volunteers, 4 h post administration vs predose.
Assay type: in vivo, human
Description: (§1) FIG. 5: Comparison of the impact of RAS blocker administration on the ARR (upper panel) and the AA2R (lower panel). Plasma samples were collected from healthy volunteers before (Predose) and 4 h post administration of a single dose of an ACE inhibitor (left), renin inhibitor (middle) or angiotensin receptor blocker (ARB, right). Plasma aldosterone concentration, equilibrium angiotensin II concentration and active renin concentration were measured and the ARR and the AA2R was calculated for each sample. For calculation of the ARR, aldosterone concentrations in ng/L were divided by the plasma active renin concentration in ng/L. For calculation of the AA2R, aldosterone concentrations in pmol/L were divided by Ang II concentrations in pmol/L. Mean values of 5 healthy volunteers+/−SEM are shown in the graphs.
Single doses of three different anti-hypertensive drugs were administered to 5 healthy volunteers on 3 different treatment days separated by one week. 4 h following administration of a single dose of 10 mg Enalapril (ACE-Inhibitor), 50 mg Losartan (ARB) or 150 mg Aliskiren (Renin-Inhibitor), heparin blood was collected by venous puncture and plasma was separated by centrifugation. Samples were frozen at −80° C. till analysis.
StSable isotope-labeled aldosterone was added to the stabilized plasma samples at a concentration of 500 pg/ml for internal standardization. Following C18-based solid-phase-extraction, samples were subjected to mass spectrometry analysis using a reversed-phase analytical column (Acquity UPLC® C18, Waters) operating in line with a XEVO TQ-S triple quadrupole mass spectrometer (Waters) in MRM mode. Two different mass transitions were measured per analyte and standard and the concentrations were calculated by relating endogenous signals to internal standard signals under consideration of the corresponding response factors determined by calibration curves in human blank plasma.

With `COCCCOc1cc(C[C@@H](C[C@H](N)[C@@H](O)C[C@H](C(=O)NCC(C)(C)C(N)=O)C(C)C)C(C)C)ccc1OC` [Aliskiren] as the compound, how does the “change in the ARR (aldosterone ng/L divided by plasma active renin concentration ng/L)” value read?
Its value is “highly significant and profound decrease”.

For `CCOC(=O)[C@H](CCc1ccccc1)N[C@@H](C)C(=O)N1CCC[C@H]1C(=O)O` [Enalapril], which “change in the ARR (aldosterone ng/L divided by plasma active renin concentration ng/L)” value is on record?
Its value is “highly significant and profound decrease”.

Which “change in the ARR (aldosterone ng/L divided by plasma active renin concentration ng/L)” value does the source give for `CCCCc1nc(Cl)c(CO)n1Cc1ccc(-c2ccccc2-c2nn[nH]n2)cc1` [Losartan] here?
Its value is “highly significant and profound decrease”.

What follows are compounds tested on aldosterone-to-angiotensin II ratio (AA2R) (assay: Aldosterone-to-angiotensin II ratio (AA2R) before and 4 h after a single dose of a RAS blocker). Settings: 5 healthy volunteers, 4 h post administration vs predose, heparin plasma equilibrated 60 min at 37° C.
Assay type: in vivo, human
Description: as §1
Single doses of three different anti-hypertensive drugs were administered to 5 healthy volunteers on 3 different treatment days separated by one week. […]
Equilibrium Ang II levels were determined by quantification of the steady-state angiotensin peptide levels in equilibrated heparin plasma samples. […] Following equilibration, plasma angiotensin peptide levels were stabilized by the addition of protease inhibitors and equilibrium peptide levels were subsequently quantified by mass spectrometry. […] Two different mass transitions were measured per analyte and standard and the concentrations were calculated by relating endogenous signals to internal standard signals under consideration of the corresponding response factors determined by calibration curves in human blank plasma.
StSable isotope-labeled aldosterone was added to the stabilized plasma samples at a concentration of 500 pg/ml for internal standardization. […] Two different mass transitions were measured per analyte and standard and the concentrations were calculated by relating endogenous signals to internal standard signals under consideration of the corresponding response factors determined by calibration curves in human blank plasma.

How did the “change in the AA2R (aldosterone pmol/L divided by equilibrium Ang II pmol/L)” value turn out when `COCCCOc1cc(C[C@@H](C[C@H](N)[C@@H](O)C[C@H](C(=O)NCC(C)(C)C(N)=O)C(C)C)C(C)C)ccc1OC` [Aliskiren] was run?
Its value is “did not significantly affect”.

`CCOC(=O)[C@H](CCc1ccccc1)N[C@@H](C)C(=O)N1CCC[C@H]1C(=O)O` [Enalapril] was tested. Which “change in the AA2R (aldosterone pmol/L divided by equilibrium Ang II pmol/L)” value did it give?
The value was “did not significantly affect”.

For `CCCCc1nc(Cl)c(CO)n1Cc1ccc(-c2ccccc2-c2nn[nH]n2)cc1` [Losartan], which “change in the AA2R (aldosterone pmol/L divided by equilibrium Ang II pmol/L)” value is on record?
Its value is “significant decrease”.
